In patent US20250129121A1, “POLYPEPTIDE, PRODUCT INCLUDING POLYPEPTIDE FOR INHIBITING FUSOBACTERIUM NUCLEATUM, OR DRUG FOR PREVENTING COLORECTAL CANCER” (priority 2022, published 2025):
In brackets after ≈: the same amount, converted by molar mass. Where a SMILES comes first, the peptide text is derived from it.

Assays:
F. nucleatum 25586 = format: cell-based, Fusobacterium nucleatum; conditions: 25586, 20 h
Procedure: (§1) A. Each polypeptide was prepared into a specified stock solution for later use. Minimum inhibitory concentrations (MICs) of the polypeptides P1 to P12 were determined by a broth microdilution method. With 0.01% acetic acid (including 0.2% of bovine serum albumin (BSA)) as a diluent, a series of gradient antimicrobial peptide solutions were prepared by a two-fold dilution method.
(§2) B. 100 μL of each polypeptide stock solution was taken and added to a 96-well cell culture plate, and then each strain solution to be tested (about 10^5/mL) was added in an equal volume to each well. A positive control (including a strain solution, but not including a polypeptide) and a negative control (including neither a strain solution nor a polypeptide). Strains to be tested include Escherichia coli Nissile 1917, Vibrio cholerae H1, Pseudomonas aeruginosa PAO1, F. nucleatum 25586, F. nucleatum 10953, Bifidobacterium uniformis 6597, Lactobacillus acidophilus 6075, Bifidobacterium longum 6194Lactobacillus rhamnosus 6141, and Streptococcus agalactiae H94.
(§3) C. The cell culture plate was incubated at a constant temperature of 37° C. for 20 h, and MIC was recorded when the turbidity was not observed by naked eyes at a bottom of a well. The strains all were purchased from the market.

F. nucleatum 10953 = format: cell-based, Fusobacterium nucleatum; conditions: 10953, 20 h
Procedure: as §1, §2, §3

[1] = tested on: F. nucleatum-induced colorectal cancer; test: F. nucleatum-enhanced colorectal cancer animal model; format: in vivo, C57BL APC^min mouse; conditions: 20 mg/kg per day intragastrically for 7 d, compared with Fn+H2O group
From the text: A. To verify the antibacterial effects of the F. nucleatum-specific antimicrobial peptides in vivo for F. nucleatum and especially the preventive effects of the F. nucleatum-specific antimicrobial peptides for F. nucleatum-induced diseases, an F. nucleatum-enhanced colorectal cancer animal model (i.e. the C57BL APC^min mouse orally administered with F. nucleatum) was adopted in this example. As shown in FIG. 20: C57BL APC^min mice were selected and intragastrically administered with F. nucleatum 25586 three times a week as an F. nucleatum intragastric administration group. Mice in a control group were intragastrically administered with an equal amount of PBS every week (PBS intragastric administration group). On the second day of intragastric administration in the first week, mice each were treated with 2.5% dextran sulfate sodium (DSS) consecutively for 3 d to improve the colonization of F. nucleatum. B. Mice were intragastrically administered with the antimicrobial peptide P8 or P11 for treatment in the sixth week, and mice in the control group were intragastrically administered with pure water. Each mouse was intragastrically administered at 20 mg/kg per day consecutively for 7 d. Then, mice were euthanized, and the tumor number and size were recorded.

other strains = test: Antimicrobial activity against strains other than F. nucleatum (bactericidal specificity); format: cell-based; conditions: test strains other than F. nucleatum
Procedure: as §1, §2, §3

[2] = tested on: Streptococcus agalactiae H94; format: cell-based; conditions: H94, 20 h
Procedure: as §1, §2, §3

[3] = tested on: Bifidobacterium longum 6194; format: cell-based; conditions: 20 h
Procedure: as §1, §2, §3

[4] = tested on: Escherichia coli Nissile 1917; format: cell-based; conditions: Nissile 1917, 20 h
Procedure: as §1, §2, §3

[5] = tested on: Bifidobacterium uniformis 6597; format: cell-based; conditions: 20 h
Procedure: as §1, §2, §3

[6] = tested on: Pseudomonas aeruginosa PAO1; format: cell-based; conditions: PAO1, 20 h
Procedure: as §1, §2, §3

[7] = tested on: Lactobacillus rhamnosus 6141; format: cell-based; conditions: 20 h
Procedure: as §1, §2, §3

[8] = tested on: Lactobacillus acidophilus 6075; format: cell-based; conditions: 20 h
Procedure: as §1, §2, §3

Row | SMILES | MIC Fusobacterium nucleatum 25586 (F. nucleatum 25586) [µM] | MIC Fusobacterium nucleatum 10953 (F. nucleatum 10953) [µM] | MIC Streptococcus agalactiae H94 [2] [µM] | MIC Bifidobacterium longum 6194 [3] [µM] | MIC Escherichia coli nissile1917 [4] [µM] | MIC Bifidobacteriu muniformis 6597 [5] [µM] | MIC Pseudomonas aeruginosa PAO1 [6] [µM] | MIC Lactobacterium rhamnosus 6141 [7] [µM] | MIC Lactobacillus acidophilus 6075 [8] [µM] | tumor diameter [1] | tumor number [1] | antimicrobial activity against other strains (other strains)
1 | N=C(N)NCCC[C@H](NC(=O)CNC(=O)[C@@H]1CCCN1C(=O)[C@H](CCCNC(=N)N)NC(=O)[C@H](Cc1c[nH]c2ccccc12)NC(=O)[C@H](Cc1c[nH]cn1)NC(=O)[C@H](Cc1c[nH]c2ccccc12)NC(=O)[C@H](CCCNC(=N)N)NC(=O)[C@H](Cc1c[nH]c2ccccc12)NC(=O)[C@H](Cc1c[nH]cn1)NC(=O)[C@@H](N)Cc1c[nH]c2ccccc12)C(=O)N[C@@H](Cc1c[nH]c2ccccc12)C(=O)N[C@@H](Cc1c[nH]cn1)C(=O)N[C@@H](Cc1c[nH]c2ccccc12)C(=O)N[C@@H](CCCNC(=N)N)C(=O)N[C@@H](Cc1c[nH]c2ccccc12)C(=O)N[C@@H](Cc1c[nH]cn1)C(=O)N[C@@H](Cc1c[nH]c2ccccc12)C(=O)O [P8, WHWRWHWRPGRWHWRWHW] (H-WHWRWHWRPGRWHWRWHW-OH; N-terminus assumed) | 8 (≈ 22.7 µg/mL) | 4 (≈ 11.3 µg/mL) | >64 | >64 | >64 | >64 | >64 | >64 | 32 (≈ 90.7 µg/mL) | relatively small | relatively small | weak antimicrobial activity
2 | N=C(N)NCCC[C@H](NC(=O)CNC(=O)[C@@H]1CCCN1C(=O)[C@H](CCCNC(=N)N)NC(=O)[C@H](Cc1c[nH]c2ccccc12)NC(=O)[C@H](CCCCN)NC(=O)[C@H](Cc1c[nH]c2ccccc12)NC(=O)[C@H](CCCNC(=N)N)NC(=O)[C@H](Cc1c[nH]c2ccccc12)NC(=O)[C@H](CCCCN)NC(=O)[C@@H](N)Cc1c[nH]c2ccccc12)C(=O)N[C@@H](Cc1c[nH]c2ccccc12)C(=O)N[C@@H](CCCCN)C(=O)N[C@@H](Cc1c[nH]c2ccccc12)C(=O)N[C@@H](CCCNC(=N)N)C(=O)N[C@@H](Cc1c[nH]c2ccccc12)C(=O)N[C@@H](CCCCN)C(=O)N[C@@H](Cc1c[nH]c2ccccc12)C(=O)O [P11, WKWRWKWRPGRWKWRWKW] (H-WKWRWKWRPGRWKWRWKW-OH; N-terminus assumed) | 4 (≈ 11.2 µg/mL) | 16 (≈ 44.8 µg/mL) | 64 (≈ 179 µg/mL) | 16 (≈ 44.8 µg/mL) | 64 (≈ 179 µg/mL) | 8 (≈ 22.4 µg/mL) | 32 (≈ 89.6 µg/mL) | >64 | 32 (≈ 89.6 µg/mL) | relatively small | relatively small | weak antimicrobial activity
3 | N=C(N)NCCC[C@H](NC(=O)CNC(=O)[C@@H]1CCCN1C(=O)[C@H](CCCNC(=N)N)NC(=O)[C@H](Cc1c[nH]c2ccccc12)NC(=O)[C@H](CCC(=O)O)NC(=O)[C@@H](N)Cc1c[nH]c2ccccc12)C(=O)N[C@@H](Cc1c[nH]c2ccccc12)C(=O)N[C@@H](CCC(=O)O)C(=O)N[C@@H](Cc1c[nH]c2ccccc12)C(=O)O [P1, WEWRPGRWEW] (H-WEWRPGRWEW-OH; N-terminus assumed) | >64 | >64 | >64 | >64 | >64 | >64 | >64 | >64 | >64 | – | – | –

Now from value to compound, other results behind:

Row | MIC Fusobacterium nucleatum 25586 (F. nucleatum 25586) [µM] | MIC Fusobacterium nucleatum 10953 (F. nucleatum 10953) [µM] | MIC Streptococcus agalactiae H94 [2] [µM] | MIC Bifidobacterium longum 6194 [3] [µM] | MIC Escherichia coli nissile1917 [4] [µM] | MIC Bifidobacteriu muniformis 6597 [5] [µM] | MIC Pseudomonas aeruginosa PAO1 [6] [µM] | MIC Lactobacterium rhamnosus 6141 [7] [µM] | MIC Lactobacillus acidophilus 6075 [8] [µM] | SMILES | tumor diameter [1] | tumor number [1] | antimicrobial activity against other strains (other strains)
4 | >64 | >64 | >64 | >64 | 64 (≈ 176 µg/mL) | >64 | >64 | >64 | >64 | N=C(N)NCCC[C@H](NC(=O)CNC(=O)[C@@H]1CCCN1C(=O)[C@H](CCCNC(=N)N)NC(=O)[C@H](Cc1c[nH]c2ccccc12)NC(=O)[C@H](CC(=O)O)NC(=O)[C@H](Cc1c[nH]c2ccccc12)NC(=O)[C@H](CCCNC(=N)N)NC(=O)[C@H](Cc1c[nH]c2ccccc12)NC(=O)[C@H](CC(=O)O)NC(=O)[C@@H](N)Cc1c[nH]c2ccccc12)C(=O)N[C@@H](Cc1c[nH]c2ccccc12)C(=O)N[C@@H](CC(=O)O)C(=O)N[C@@H](Cc1c[nH]c2ccccc12)C(=O)N[C@@H](CCCNC(=N)N)C(=O)N[C@@H](Cc1c[nH]c2ccccc12)C(=O)N[C@@H](CC(=O)O)C(=O)N[C@@H](Cc1c[nH]c2ccccc12)C(=O)O [P5, WDWRWDWRPGRWDWRWDW] (H-WDWRWDWRPGRWDWRWDW-OH; N-terminus assumed) | – | – | –
5 | 64 (≈ 96.2 µg/mL) | 8 (≈ 12 µg/mL) | >64 | >64 | 64 (≈ 96.2 µg/mL) | >64 | >64 | 64 (≈ 96.2 µg/mL) | 32 (≈ 48.1 µg/mL) | N=C(N)NCCC[C@H](NC(=O)CNC(=O)[C@@H]1CCCN1C(=O)[C@H](CCCNC(=N)N)NC(=O)[C@H](Cc1c[nH]c2ccccc12)NC(=O)[C@H](Cc1c[nH]cn1)NC(=O)[C@@H](N)Cc1c[nH]c2ccccc12)C(=O)N[C@@H](Cc1c[nH]c2ccccc12)C(=O)N[C@@H](Cc1c[nH]cn1)C(=O)N[C@@H](Cc1c[nH]c2ccccc12)C(=O)O [P7, WHWRPGRWHW] (H-WHWRPGRWHW-OH; N-terminus assumed) | – | – | –
